In US20050197343A1, “Utilization of heteroarene carboxamide as dopamine-d3 ligands for the treatment of cns diseases” (priority 2002, published 2005):

What was measured:
D3 receptor [1] = target: T1, D3 receptor (Homo sapiens, UniProt P35462); test: radio ligand binding assay, CHO cell membrane homogenates, [3H]Spiperon, D3; set-up: expressed in transfected cells; host or cells: CHO cells (membrane homogenates); conditions: for Ki: hD3, average of 2-9 experiments in triplicate, read-out: Ki-values D3
T1 sequence (P35462 whole entry): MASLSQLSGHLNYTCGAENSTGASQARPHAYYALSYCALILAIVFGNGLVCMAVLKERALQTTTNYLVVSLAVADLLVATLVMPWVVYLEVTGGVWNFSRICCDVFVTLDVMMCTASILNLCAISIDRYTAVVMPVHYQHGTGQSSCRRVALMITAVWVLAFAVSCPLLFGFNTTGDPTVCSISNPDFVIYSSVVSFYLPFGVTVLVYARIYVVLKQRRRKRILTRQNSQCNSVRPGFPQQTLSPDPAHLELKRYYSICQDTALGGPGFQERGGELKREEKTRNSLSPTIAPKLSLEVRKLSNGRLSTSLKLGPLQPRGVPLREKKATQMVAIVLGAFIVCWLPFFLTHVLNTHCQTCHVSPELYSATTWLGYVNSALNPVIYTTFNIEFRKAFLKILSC
Method: (§1) The biological activities of the compounds of the invention were determined in radio ligand binding assays.

human D2short receptor = target: T2, human D2short receptor (Homo sapiens, UniProt P14416); test: radio ligand binding assay, CHO cell membrane homogenates, [3H]Spiperon, D2short; conditions: hD2short; average of 2-9 experiments in triplicate
T2 construct: expressed in transfected cells; host or cells: CHO cells (membrane homogenates)
T2 sequence (P14416 1-414 isoform P14416-2): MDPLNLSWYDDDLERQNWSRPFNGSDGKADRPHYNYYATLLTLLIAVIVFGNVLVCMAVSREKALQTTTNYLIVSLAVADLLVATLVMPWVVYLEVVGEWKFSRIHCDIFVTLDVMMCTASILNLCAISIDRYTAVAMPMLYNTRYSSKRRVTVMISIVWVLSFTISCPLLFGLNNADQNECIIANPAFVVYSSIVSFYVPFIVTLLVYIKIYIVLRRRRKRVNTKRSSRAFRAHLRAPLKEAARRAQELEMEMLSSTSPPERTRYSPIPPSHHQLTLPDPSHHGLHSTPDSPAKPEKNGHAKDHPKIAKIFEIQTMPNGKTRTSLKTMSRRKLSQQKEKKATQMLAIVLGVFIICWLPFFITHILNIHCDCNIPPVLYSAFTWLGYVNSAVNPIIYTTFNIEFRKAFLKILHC
Method: as §1

serotonin receptor 5-HT2 = target: T3, serotonin receptor 5-HT2 (Sus scrofa, UniProt P50129); test: radio ligand binding, pig cortex membrane preparations, [3H]Ketanserin with 10 μM Prazosin; conditions: p5-HT2; simultaneous incubation with 10 μM of Prazosin
T3 construct: cortex membrane preparations of a pig; from tissue; host or cells: pig cortex
T3 sequence (P50129 whole entry): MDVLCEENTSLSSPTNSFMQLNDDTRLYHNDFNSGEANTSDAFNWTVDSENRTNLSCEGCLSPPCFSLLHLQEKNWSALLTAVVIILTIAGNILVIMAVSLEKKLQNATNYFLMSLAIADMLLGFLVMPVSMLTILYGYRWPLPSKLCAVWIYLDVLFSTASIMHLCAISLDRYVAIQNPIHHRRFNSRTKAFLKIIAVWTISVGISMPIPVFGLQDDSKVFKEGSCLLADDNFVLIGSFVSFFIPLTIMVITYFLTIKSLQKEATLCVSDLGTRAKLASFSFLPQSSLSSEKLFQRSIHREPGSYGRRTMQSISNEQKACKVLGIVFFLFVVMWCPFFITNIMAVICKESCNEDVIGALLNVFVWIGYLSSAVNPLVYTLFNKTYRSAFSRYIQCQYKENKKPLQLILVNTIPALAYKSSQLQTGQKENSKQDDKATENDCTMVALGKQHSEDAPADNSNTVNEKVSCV

human D4.4 receptor = target: T4, human D4.4 receptor (Homo sapiens, UniProt P21917); test: radio ligand binding assay, CHO cell membrane homogenates, [3H]Spiperon, D4.4; conditions: hD4.4; average of 2-9 experiments in triplicate
T4 construct: expressed in transfected cells; host or cells: CHO cells (membrane homogenates)
T4 sequence (P21917 1-419): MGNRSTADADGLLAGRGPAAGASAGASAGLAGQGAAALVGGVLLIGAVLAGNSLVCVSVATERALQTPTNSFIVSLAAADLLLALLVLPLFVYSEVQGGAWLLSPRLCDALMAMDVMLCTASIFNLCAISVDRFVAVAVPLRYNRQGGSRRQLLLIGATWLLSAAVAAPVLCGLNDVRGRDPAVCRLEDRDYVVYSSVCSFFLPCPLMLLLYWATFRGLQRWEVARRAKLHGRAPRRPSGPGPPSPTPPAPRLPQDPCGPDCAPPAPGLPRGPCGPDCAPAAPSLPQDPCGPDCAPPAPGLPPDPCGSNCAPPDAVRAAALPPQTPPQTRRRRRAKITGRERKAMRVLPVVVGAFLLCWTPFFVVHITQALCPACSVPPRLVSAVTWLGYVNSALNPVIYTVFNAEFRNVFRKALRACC
Method: as §1

[2] = target: T5, serotonin receptor 5-HT1A (Sus scrofa, UniProt A0A4X1UTF5); test: radio ligand binding, pig cortex membrane preparations, [3H]8-OH-DPAT; conditions: read-out: Ki values 5-HT1A; p5-HT1A; [3H]8-OH-DPAT; average of 2 to 6 experiments
T5 sequence (A0A4X1UTF5 1-422): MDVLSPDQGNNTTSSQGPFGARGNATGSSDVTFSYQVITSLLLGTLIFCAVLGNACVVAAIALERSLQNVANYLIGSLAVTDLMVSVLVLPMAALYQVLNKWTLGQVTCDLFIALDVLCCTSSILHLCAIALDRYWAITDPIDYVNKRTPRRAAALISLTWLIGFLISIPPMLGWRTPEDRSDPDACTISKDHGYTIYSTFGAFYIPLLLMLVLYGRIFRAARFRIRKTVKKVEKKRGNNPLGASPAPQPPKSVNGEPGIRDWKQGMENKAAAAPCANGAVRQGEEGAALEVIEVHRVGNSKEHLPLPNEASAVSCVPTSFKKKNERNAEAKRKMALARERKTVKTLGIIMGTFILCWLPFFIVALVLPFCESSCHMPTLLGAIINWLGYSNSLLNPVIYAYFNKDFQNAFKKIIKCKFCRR

human D2long receptor = target: T6, human D2long receptor (Homo sapiens, UniProt P14416); test: radio ligand binding assay, CHO cell membrane homogenates, [3H]Spiperon, D2long; conditions: hD2long; average of 2-9 experiments in triplicate
T6 construct: expressed in transfected cells; host or cells: CHO cells (membrane homogenates)
T6 sequence (P14416 whole entry): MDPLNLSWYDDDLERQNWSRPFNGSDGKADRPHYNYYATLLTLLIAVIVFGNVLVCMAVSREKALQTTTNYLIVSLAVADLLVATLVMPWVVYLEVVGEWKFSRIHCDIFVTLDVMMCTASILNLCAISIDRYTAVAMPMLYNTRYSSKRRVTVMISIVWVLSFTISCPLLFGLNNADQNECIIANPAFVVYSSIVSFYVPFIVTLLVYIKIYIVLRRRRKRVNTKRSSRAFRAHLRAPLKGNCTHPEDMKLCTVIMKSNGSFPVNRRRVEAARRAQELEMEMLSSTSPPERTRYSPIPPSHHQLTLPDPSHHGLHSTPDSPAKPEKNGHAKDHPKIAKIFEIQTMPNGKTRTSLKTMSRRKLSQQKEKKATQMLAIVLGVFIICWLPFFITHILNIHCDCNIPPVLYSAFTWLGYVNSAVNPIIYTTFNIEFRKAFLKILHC
Method: as §1

D1 receptor = target: T7, D1 receptor (Sus scrofa, UniProt P50130); test: radio ligand binding assay, D1 receptor, pig striatum membrane homogenates, [3H]SCH 23390; conditions: pD1; average of 2-9 experiments in triplicate
T7 construct: native membrane homogenates obtained from the striatum of a pig; from tissue; host or cells: pig striatum
T7 sequence (P50130 whole entry): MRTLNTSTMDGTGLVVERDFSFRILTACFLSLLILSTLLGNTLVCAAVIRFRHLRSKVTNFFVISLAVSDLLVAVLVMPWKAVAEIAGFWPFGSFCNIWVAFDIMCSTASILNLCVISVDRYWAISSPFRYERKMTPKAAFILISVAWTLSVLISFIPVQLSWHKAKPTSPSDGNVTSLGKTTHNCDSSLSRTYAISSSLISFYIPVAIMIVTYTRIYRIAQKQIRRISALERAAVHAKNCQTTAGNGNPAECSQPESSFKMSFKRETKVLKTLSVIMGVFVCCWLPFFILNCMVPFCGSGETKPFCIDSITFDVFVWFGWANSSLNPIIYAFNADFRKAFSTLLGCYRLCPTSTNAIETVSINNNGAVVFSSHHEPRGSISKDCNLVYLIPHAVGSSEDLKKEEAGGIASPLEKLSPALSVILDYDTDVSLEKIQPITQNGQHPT
Method: as §1

α1 receptors = test: competitive experiment with the α1 selective radio ligand [3H]Prazosin; conditions: read-out: Ki values α1 (footnote d); pα1; competitive experiment with [3H]Prazosin
D3 receptor [3] = target: T1, D3 receptor; test: mitogenesis assay (intrinsic activity); assay type: cell-based
Text: D3 ligands may show agonistic, antagonistic or partial-agonistic activity on the D3 receptor. The respective intrinsic activities of the compounds of the invention may be measured in mitogenesis assays as described in literature (Hübner, H. et al. J. Med. Chem. 2000, 43, 4563-4569, and Löber, S. Bioorg. Med. Chem. Lett. 2002, 12.17, 2377-2380). Depending on the pathophysiology of the underlying disease, a stronger agonistic, stronger antagonistic or partial-agonistic activity may be desirable. The present invention therefore permits an excellent fine-tuning of the desired activity.
Tests to determine the intrinsic activity of the compounds of the examples were carried out in a mitogenesis assay as described in literature (Hübner, H. et al. J. Med. Chem. 2000, 43, 4563-4569; Löber, S. Bioorg. Med. Chem. Lett. 2002, 12.17, 2377-2380).

SMILES | Ki (D3 receptor [1]) | D3 selectivity D2long/D3 (D3 receptor [1]; ratio of Ki values) | D3 selectivity D2short/D3 (D3 receptor [1]; ratio of Ki values) | D3 selectivity D4.4/D3 (D3 receptor [1]; ratio of Ki values) | Ki (human D2short receptor) | Ki (serotonin receptor 5-HT2) | Ki (human D4.4 receptor) | Ki [2] | Ki (human D2long receptor) | Ki (D1 receptor) | Ki (α1 receptors) | EC50 (D3 receptor [3]; curve calculation of the concentration-activity test) | partial agonistic activity, % of the maximum receptor stimulation (D3 receptor [3]; maximum triggered by the full agonist Quinpirol as reference)
O=C(NCCCCN1CCN(c2cccc(Cl)c2Cl)CC1)c1cc2ccccc2[te]1 [Example 9, N-4-(4-(2,3-dichlorophenyl)piperazine-1-yl)butyl-2-benzo[b]tellurophenylcarbamide] | 0.00055 µM | 170 | 87 | 270 | 0.048 µM | 0.73 µM | 0.15 µM | 0.13 µM | 0.091 µM | 1.4 µM | 0.1 µM | – | –
COc1ccccc1N1CCN(CCCCNC(=O)c2cc3ccccc3s2)CC1 [Example 1, N-4-(4-(2-methoxyphenyl)piperazine-1-yl)butyl-2-benzo[b]thiophenylcarbamide] | 0.00023 to 0.00057 µM | – | – | – | – | – | – | – | – | – | 0.0064 µM | 0.00038 µM | 49%
